The test concerns the target Cyclin-dependent kinase 2 (Homo sapiens, UniProt P24941). Description: Protein Kinase Assay. The settings on record: pH 7.5; 30 °C. Here is the method: We incubated human recombinant CDK2/cyclin A with small molecules at the indicatedconcentrations in buffer A (Tris HCl (25 mm, pH 7.5), MgCl2 (10 mm), EGTA (1 mm), DTT (1 mm), heparin ([…])) containing histone H1 (1 mg/mL), […] and [g-33P]ATP (15 mm, 3,000 Cimmol^-1; 10 mCi/mL) in a […]. After 30 min incubation at 30 C , we stopped the reaction by using a MicroBeta FilterMate-96 Harvester and P81 phosphocellulose papers , which we washed in phosphoric acid (1 %). We added scintillation fluid, and we measured the radioactivity in a counter with microplate robotic stackers. We calculated kinase activity as picomoles of phosphate incorporated during the 30 min incubation. We evaluated percentage kinase activity as the amount compared to that measured in the absence of inhibitors.
For `NNc1ncnc2sc3c(c12)CCCC3` [4-hydrazino-5,6,7,8-tetrahydro[1]benzothieno[2,3-d]pyrimidine (A)], binding was put at a Kd of 28.3 µM.

In the case of `NNc1ncnc2sc3c(c12)CCCCC3` [4-hydrazino-6,7,8,9-tetrahydro-5H-cyclohepta[4,5]thieno[2,3-d]pyrimidine (A1)], binding was put at a Kd of 32.5 µM.

In the case of `NNc1ncnc2sc3c(c12)CCC3` [7,8-dihydro-6H-cyclopenta[4,5]thieno[1,2-c]pyrimidin-1-yldiazane], the affinity, expressed as Kd, was 287 µM. Compared with the last compound, the Kd is about 8.8-fold higher.

In the case of `CC(=O)OCc1cc(O)c2c(c1)C(=O)c1cccc(O)c1C2=O` [11-O-acetyl-aloe-emodin], the affinity, expressed as Kd, was 17.8 µM.

Turning to `O=C(O)c1cc(O)c2c(c1)C(=O)c1cccc(O)c1C2=O` [RHEIN], the Kd (usually a measure of binding affinity in units of concentration) worked out at 9.6 µM. Against the preceding compound, the Kd is about 1.9-fold lower.

For the origin of these results see BindingDB's records for doi:10.1002/cbic.201402579 (2015).
